Experimental data published in patent US6646006B2, “Enhancement of vascular function by modulation of endogenous nitric oxide production or activity” (The Board of Trustees of the Leland Stanford Junior …, priority 1993, dated 2003).

How the values were obtained:
[1] = tested on: hypercholesterolemic rabbits; assay: Organ chamber studies of isolated vessels from cholesterol-fed rabbits; assay type: in vivo, rabbit
Excerpt: Study design: (See, Cooke et al., 1992, supra) Male New Zealand white rabbits (n=49) were assigned to one of three treatment groups: 10 were fed with normal rabbit chow for ten weeks (Control); 19 received chow enriched with 1% cholesterol (Chol); and 20 received a 1% cholesterol diet supplemented with 2.25% L-arginine hydrochloride in the drinking water (Arg.). […] Subsequently the animals were sacrificed and the left main coronary artery and the thoracic aorta were harvested for studies of vascular reactivity and histomorphometry. In some animals, blood was collected for studies of platelet and monocyte reactivity.
By contrast, NO-dependent relaxations were attenuated in vessels harvested from hypercholesterolemic animals with a reduction in the maximal response to acetylcholine. In comparison, vessels harvested from hypercholesterolemic animals receiving L-arginine supplementation had improved NO-dependent relaxation to acetylcholine. In a separate study, the effect of chronic arginine supplementation to improve NO-dependent relaxation was confirmed in the hypercholesterolemic rabbit abdominal aorta.

[2] = set-up: species or system human; settings: in vivo, po
Protocol: The control subject population in this study included 12 normal volunteers, (10 males and 2 females), with an average age of 37±2 yrs. Normalcy was determined by a careful history, physical examination, and laboratory analysis to exclude individuals with hematologic, renal, or hepatic dysfunction or clinically evident atherosclerosis. There were 20 patients (10 males and 10 females) with hypercholesterolemia as defined by a total plasma cholesterol greater than 240 mg/dl and a LDL cholesterol level greater than 160 mg/dl. […] None of the subjects were taking diuretics, vasoactive medications, antiplatelet or hypolipidemic medications. This study was approved by the Stanford University Administrative Panel on Human Subjects in Medical Research and each subject gave written informed consent before entry into the study. Blood was drawn from each subject in the postabsorptive state.
Results. Oral administration of L-arginine ([…] for 2 weeks) to hypercholesterolemic humans increased plasma arginine values by 60% (from […]; n=7), whereas L-arginine values in the placebo-treated (n=3) and normocholesterolemic (n=6) groups remained unchanged.

platelets = assay: Platelet aggregometry in hypercholesterolemic humans after oral L-arginine; assay type: in vivo, human
Excerpt: FIG. 13 is a set of histograms showing aggregation of platelets obtained in hypercholesterolemic humans (hc), and individuals with normal cholesterol levels (nc). Platelet aggregation ex vivo in response to adenosine diphosphate (ADP) is increased in hc individuals in comparison to normal individuals. […] (See Ex. 16)
In this study we tested the hypothesis that chronic L-arginine supplementation would inhibit platelet reactivity in hypercholesterolemic humans. Venous blood was collected from normal (NC; n=11) and hypercholesterolemic (HC; n=22) volunteers for isolation of platelet-rich plasma and aggregometry. […]

N=C(N)NCCC[C@H](N)C(=O)O [L-arginine]
NO-independent responses: maximal response or sensitivity to norepinephrine or nitroglycerin ([1]; differences between treatment groups): no differences | NO-dependent relaxation to acetylcholine ([1]; vs hypercholesterolemic animals without supplement): improved | increase of plasma arginine values ([2]; human, 2 weeks): 60% | plasma arginine value after treatment ([2]; human, 2 weeks): 128 ± 12 mM | effect on biochemical or hematologic parameters [2]: no effect | tolerability [2]: well tolerated | platelet aggregation in response to ADP (platelets; 2 weeks of oral L-arginine): attenuated | aggregability of HC platelets (platelets; two weeks, collagen 5 mg/ml): reduced
